# Where two headings read alike, the source gives them in different places.
# Legend:
# [1] = target: T1, AHR (Homo sapiens, UniProt P35869); assay: DRE-Luciferase Reporter Assay, HepG2 AhR-Lucia reporter cells; assay type: cell-based; conditions: with AHR activating ligand at EC50, read-out: HepG2-Luc IC50
# T1 construct: other cell line with a DRE-luciferase reporter stably transfected; endogenous in cells; host or cells: HepG2 AhR-Lucia reporter cells
# T1 sequence (P35869 11-848): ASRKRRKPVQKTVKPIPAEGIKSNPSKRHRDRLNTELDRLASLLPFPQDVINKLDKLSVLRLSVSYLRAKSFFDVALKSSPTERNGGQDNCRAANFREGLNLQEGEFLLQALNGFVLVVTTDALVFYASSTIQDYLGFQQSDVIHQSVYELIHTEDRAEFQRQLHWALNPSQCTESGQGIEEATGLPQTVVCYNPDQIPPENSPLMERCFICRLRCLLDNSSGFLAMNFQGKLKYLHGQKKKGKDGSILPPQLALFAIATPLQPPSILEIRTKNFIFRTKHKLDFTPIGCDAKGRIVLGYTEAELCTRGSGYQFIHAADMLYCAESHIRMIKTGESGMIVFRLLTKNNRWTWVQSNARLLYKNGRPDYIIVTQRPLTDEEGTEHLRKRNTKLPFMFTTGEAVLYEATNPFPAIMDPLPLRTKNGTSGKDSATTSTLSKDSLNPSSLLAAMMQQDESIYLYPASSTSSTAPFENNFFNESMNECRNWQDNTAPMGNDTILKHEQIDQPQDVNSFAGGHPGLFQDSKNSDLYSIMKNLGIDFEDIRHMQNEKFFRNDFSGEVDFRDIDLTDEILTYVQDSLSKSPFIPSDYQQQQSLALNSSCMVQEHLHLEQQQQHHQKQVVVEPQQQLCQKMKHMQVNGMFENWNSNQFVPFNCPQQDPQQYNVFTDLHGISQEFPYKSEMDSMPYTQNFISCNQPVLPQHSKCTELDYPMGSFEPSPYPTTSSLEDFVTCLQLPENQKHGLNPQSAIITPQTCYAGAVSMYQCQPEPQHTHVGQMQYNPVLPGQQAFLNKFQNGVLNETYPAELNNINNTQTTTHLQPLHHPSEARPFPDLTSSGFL
# Procedure, shortened: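 DRE-luciferase reporter cells (e.g. HepG2 AhR-Lucia, 20000 cells) treated with antagonist log dilutions from 100 uM, then an AHR agonist (e.g. TCDD, kynurenine, ITE, FICZ) at its EC50 added after 1 hr. Secreted luciferase measured after 24 or 48 h (QUANTI-Luc); IC50 = concentration halving luciferase activity.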
# [2] = Hepatocyte Stability Assay, human; assay type: in vitro ADME; conditions: cryopreserved hepatocytes in suspension; human hepatocytes; read-out: Human hepatocyte clearance
# Procedure: • Preparation of working solutions: 10 mM stock solutions of test compound and positive control were prepared in DMSO. In separate conical tubes, the 10 mM solution of test compound and the positive control were diluted to 100 μM by combining 198 μL of 50% acetonitrile/50% water and 2 μL of 10 mM stock.
# Preparation of Hepatocytes: Incubation medium (William's E Medium supplemented with GlutaMAX) and hepatocyte thawing medium were placed in a 37° C. water bath and allowed warming for at least 15 minutes prior to use. A vial of cryopreserved hepatocytes was transferred from storage, ensuring that vials remained at cryogenic temperatures until thawing process ensued. Cells were thawed by placing the vial in a 37° C. water bath and gently shaking the vials for 2 minutes. After thawing was completed, vial was sprayed with 70% ethanol and transferred to a biosafety cabinet. Wide-bore pipette tip were used to transfer hepatocytes into 50 mL conical tube containing thawing medium. The 50 mL conical tube were placed into a centrifuge and spun at 100 g for 10 minutes. Upon completion of spin, thawing medium was aspirated and resuspended hepatocytes in enough incubation medium to yield ˜1.5×10^6 cells/mL. Using an AO/PI Staining, cells were counted and the viable cell density was determined. Cells with poor viability (<75% viability) were determined to be not acceptable for use. Cells were diluted with incubation medium to a working cell density of 0.5×10^6 viable cells/mL.
# Procedure for Stability Determination: 198 μL of hepatocytes were pipetted into each wells of a 96-well non-coated plate. The plate was placed in the incubator to allow the hepatocytes to warm for 10 minutes. 2 μL of the 100 μM test compound or positive control solutions were pipetted into respective wells of the 96-well non-coated plate to start the reaction. The plate was returned to the incubator for the designed time points. Well contents was transferred in 25 μL aliquots at time points of 0, 15, 30, 60, 90 and 120 minutes. The aliquots were then mixed with 6 volumes (150 μL) of acetonitrile containing internal standard, IS (100 nM alprazolam, 200 nM caffeine and 100 nM tolbutamide) to terminate the reaction. The mixture was vortex for 5 minutes. Samples were centrifuged for 45 minutes at 3,220 g. An aliquot of 100 μL of the supernatant was diluted by 100 μL ultra-pure water, and the mixture was used for LC/MS/MS analysis. All incubations were performed in duplicate.
# Data Analysis: All calculations were carried out using Microsoft Excel. Peak areas were determined from extracted ion chromatograms. In vitro half-life (t1/2) of parent compound was determined by regression analysis of the percent parent disappearance vs. time curve.
# (§1) The in vitro half-life (in vitro t1/2) was determined from the slope value:
# Conversion of the in vitro t1/2 (in min) into the in vitro intrinsic clearance (in vitro CLint, in μL/min/1×10^6 cells) was done using the following equation (mean of duplicate determinations):
# V=incubation volume(0.2 mL);
# N=number of hepatocytes per well(0.1×10^6 cells).
# “+++” indicates a CLint value less than 20 mL/min/Kg, “++” indicates a CLint between 20 and 50 mL/min/Kg, and “+” indicates an CLint above 50 mL/min/Kg.
# [3] = Solubility Determination Assay in PBS pH 1.6 and pH 7.4; assay type: physicochemical; conditions: PBS buffer, aqueous buffer, kinetic from dmso stock
# Procedure: The stock solutions of test compounds and control compound progesterone were prepared in DMSO at the concentrations of 10 mM. 15 μL of stock solution (10 mM) of each sample was placed in order into their proper 96-well rack. 485 μL of PBS pH 1.6 and pH 7.4 were added into each vial of the cap-less Solubility Sample plate. The assay was performed in singlet. One stir stick was added to each vial and then the vial was sealed using a molded PTFE/Silicone plug. […] After completion of the 2 hours, plugs were removed and the stir sticks were removed using a big magnet. The samples from the Solubility Sample plate were transferred into the filter plate. Using the Vacuum Manifold, all the samples were filtered. An aliquot of 5 μL was taken from the filtrate followed by addition of 495 μL of a mixture of H2O and acetonitrile containing internal standard (1:1). A certain proportion of ultrapure water was used to dilute the diluent according to the peak shape. The dilution factor was changed according to the solubility values and the LC-MS signal response.
# From the 10 mM DMSO STD plate, 6 μL was transferred into the remaining empty plate, and then 194 μL of DMSO were added to that plate to have a STD concentration of 300 μM. From the 300 μM DMSO STD plate, 5 μL were transferred into the remaining empty plate, and then 495 μL of a mixture of H2O and acetonitrile containing internal standard (1:1) were added to that plate to have a final STD concentration of 3 μM. A certain proportion of ultrapure water was used to dilute the diluent according to the peak shape. The concentrations of the standard samples were changed according to the LC-MS signal response.
# The plate was placed into the well plate autosampler. The samples were evaluated by LC-MS/MS analysis.
# All calculations were carried out using Microsoft Excel.
# The filtrate was analyzed and quantified against a standard of known concentration using LC coupled with mass spectral peak identification and quantitation. Solubility values of the test compound and control compound were calculated as follows: […]
# Any value of the compounds that was not within the specified limits was rejected and the experiment was repeated.
# “+++” indicates a solubility value equal to or greater than 1 μM, “++” indicates a solubility value between 0.1 and 1 μM, and “+” indicates a solubility value less than 0.1 μM.
# [4] = Liver Microsome Stability Assay, human; assay type: in vitro ADME; conditions: human liver microsomes
# Procedure: Two separate experiments were performed as follows.
# With Cofactors (NADPH): 25 μL of 10 mM NADPH was added to the incubations. The final concentrations of microsomes and NADPH were 0.5 mg/mL and 1 mM, respectively. The final concentration of microsomes was 0.5 mg/mL. The mixture was pre-warmed at 37° C. for 10 minutes. The reaction was started with the addition of 2.5 μL of 100 μM control compound or test compound solutions. Verapamil was used as positive control in this study. The final concentration of test compound or control compound was 1 μM. The incubation solution was incubated in water batch at 37° C. Aliquots of 25 μL were taken from the reaction solution at 0.5, 5, 15, 30 and 60 minutes. The reaction was stopped by the addition of 5 volumes of cold acetonitrile with IS (200 nM caffeine and 100 nM tolbutamide). Samples were centrifuged at 3, 220 g for 40 minutes. Aliquot of 100 μL of the supernatant was mixed with 100 μL of ultra-pure H2O and then used for LC-MS/MS analysis.
# Data Analysis: All calculations were carried out using Microsoft Excel. Peak areas were determined from extracted ion chromatograms. The slope value, k, was determined by linear regression of the natural logarithm of the remaining percentage of the parent drug vs. incubation time curve.
# as §1
# Conversion of the in vitro t1/2 (min) into the in vitro intrinsic clearance (in vitro CLint, in μL/min/mg protein) was done using the following equation (mean of duplicate determinations): […]
# The calculations of Scaled-up CLint(mL/min/kg), Predicted CLH (mL/min/kg) and EH were done using the following equation:
# Scaled-up CLint=(0.693/t1/2)×(1/(microsomal protein concentration(0.5 mg/mL)))×Scaling Factors;Predicted CLH=(QH×Scaled-up CLint×fub)/(QH+Scaled-up CLint×fub);EH=Predicted CLH/QH
# where QH is the hepatic blood flow (mL/min/kg) (Table 32), • fub is the fraction of unbound drug in plasma which is assumed to be 1.
# “+++” indicates a Clint value less than 10 mL/min/Kg, […] indicates a Clint between 10 and 20 mL/min/Kg, and “+” indicates a Clint above 20 mL/min/Kg.
# [5] = PBS pH 1.6, 25° C., read-out: Aq. Solubility at pH = 1.6
# [6] = PBS pH 7.4, 25° C., read-out: Aq. Solubility at pH = 7.4
IC50 [1] [nM],CLint scaled at 1 μM [2] [mL/min/kg],"solubility at 2 h [3, 5] [µM]","solubility at 2 h [3, 6] [µM]",Compound,Human liver microsome clearance [4]
< 100,–,≥ 1,≥ 1,"O=c1c2cc(-c3ccc(C(F)(F)F)nc3)nc(-c3cccnc3)c2ncn1[C@@H]1COC[C@@H]1O [Compound 129, 3-((3R,4R)-4-hydroxytetrahydrofuran-3-yl)-8-(pyridin-3-yl)-6-(6-(trifluoromethyl)pyridin-3-yl)pyrido[3,4-d]pyrimidin-4(3H)-one]",–
< 100,–,≥ 1,≥ 1,C[C@@H](CO)n1cnc2c(-c3cccnc3)nc(-c3ccc(Cl)cc3)cc2c1=O [Compound 24],–
< 100,< 20,–,–,"O=c1c2cc(-c3ccc(Cl)cc3)nc(-c3cccnc3)c2ncn1[C@@H]1CNC[C@H]1O [Compound 134, 6-(4-chlorophenyl)-3-((3R,4R)-4-hydroxypyrrolidin-3-yl)-8-(pyridin-3-yl)pyrido[3,4-d]pyrimidin-4(3H)-one]",–
–,< 20,≥ 1,≥ 1,O=c1c2cc(-c3ccc(Cl)cc3)nc(-c3cccnc3)c2ncn1[C@H]1COC[C@H]1O (stereo in doubt) [Compound 70],–

# More lines, now with the values behind:
Compound,IC50 [1] [nM],CLint scaled at 1 μM [2] [mL/min/kg],"solubility at 2 h [3, 5] [µM]","solubility at 2 h [3, 6] [µM]",Human liver microsome clearance [4]
"C[C@@H](CO)n1cnc2c(-c3cnn(C)c3)nc(-c3ccc(C(F)(F)F)cn3)cc2c1=O [Compound 150, (S)-3-(1-hydroxypropan-2-yl)-8-(1-methyl-1H-pyrazol-4-yl)-6-(5-(trifluoromethyl)pyridin-2-yl)pyrido[3,4-d]pyrimidin-4(3H)-one]",< 100,< 20,–,–,–
Cc1ccc(-c2cc3c(=O)n([C@H](CO)C(C)C)cnc3c(-c3cc(F)cc(F)c3)n2)cc1 [Compound 37],< 100,–,≥ 1,< 0.1,–
"O=c1c2cc(-c3ccc(OC(F)(F)F)cc3)nc(-c3cccnc3)c2ncn1C[C@@H](O)C(F)(F)F [Compound 123, (R)-8-(pyridin-3-yl)-3-(3,3,3-trifluoro-2-hydroxypropyl)-6-(4-(trifluoromethoxy)phenyl)pyrido[3,4-d]pyrimidin-4(3H)-one]",–,< 20,≥ 1,< 0.1,–
"C[C@@H](CO)n1cnc2c(-c3cccc(F)c3)nc(-c3ccc(OC(F)(F)F)cc3)cc2c1=O [Compound 49, 8-(3-fluorophenyl)-3-[(1S)-2-hydroxy-1-methyl-ethyl]-6-[4-(trifluoromethoxy)phenyl]pyrido[3,4-d]pyrimidin-4-one]",< 100,–,< 0.1,< 0.1,+++ (“+++” indicates a Clint value less than 10 mL/min/Kg)
CC(C)(O)Cn1cnc2c(-c3cccc(F)c3)nc(-c3ccc(Cl)cc3)cc2c1=O [Compound 38],< 100,–,< 0.1,< 0.1,–
"O=c1c2cc(-c3ccc(C(F)(F)F)cn3)nc(-c3cccnc3)c2ncn1[C@@H]1COC[C@@H]1O [Compound 148, 3-((3R,4R)-4-hydroxytetrahydrofuran-3-yl)-8-(pyridin-3-yl)-6-(5-(trifluoromethyl)pyridin-2-yl)pyrido[3,4-d]pyrimidin-4(3H)-one]",< 100,–,≥ 1,≥ 1,–

# — patent US20230295152A1 (SENDA BIOSCIENCES, INC., priority 2019, published 2023)
